The values that follow come from PMC6837725.

The nature of this data set: Intramolecular Suzuki-Miyaura C(sp3)-C(sp2) coupling (cis-4-chlorocyclobut-2-ene carboxylate + E-vinyl-BPin) followed by spontaneous 4pi-electrocyclic ring opening to the (E,E,E)-trienoate macrolactone; Pd(PPh3)4 10 mol%, Cs2CO3 5 equiv. The note with it: 19-membered ring, THF/H2O 3:1, 2.0 mM, 25.0 °C.

The structures appear in SMILES notation.

In the case of `CCCCCCC/C=C/C=C(\C)[C@H]1CC(=O)NCCCC(=O)NCC/C=C/C=C/C=C/C(=O)O1` [cis-31g -> FR4 (no C12-Me, no C13-O)], the ring closure, isolated yield (from CCCCCCC/C=C/C=C(\C)[C@@H](CC(=O)NCCCC(=O)NCC/C=C/B1OC(C)(C)C(C)(C)O1)OC(=O)C1C=CC1Cl) amounted to 55%.

As to `CCCCCCC/C=C/C=C(\C)[C@H]1CC(=O)NC[C@H](O[Si](C)(C)C(C)(C)C)CC(=O)NCC/C=C/C=C/C=C/C(=O)O1` [cis-31f -> 32f (FR3, C12-desmethyl)], the ring closure, isolated yield (from CCCCCCC/C=C/C=C(\C)[C@@H](CC(=O)NC[C@@H](CC(=O)NCC/C=C/B1OC(C)(C)C(C)(C)O1)O[Si](C)(C)C(C)(C)C)OC(=O)C1C=CC1Cl) is 73%.

Take `CCCCCCCCC/C=C/C=C(\C)[C@H]1CC(=O)NC[C@H](O[Si](C)(C)C(C)(C)C)[C@H](C)C(=O)NCC/C=C/C=C/C=C/C(=O)O1` [cis-31b -> 32b (FR252922)]: the ring closure, isolated yield (from CCCCCCCCC/C=C/C=C(\C)[C@@H](CC(=O)NC[C@H](O[Si](C)(C)C(C)(C)C)[C@H](C)C(=O)NCC/C=C/B1OC(C)(C)C(C)(C)O1)OC(=O)C1C=CC1Cl) was 82%.

Regarding `CCCCCCC/C=C/C=C/C=C(\C)[C@H]1CC(=O)NC[C@H](O[Si](C)(C)C(C)(C)C)[C@H](C)C(=O)NCC/C=C/C=C/C=C/C(=O)O1` [cis-31c -> 32c (FR256523)], the ring closure, isolated yield (from CCCCCCC/C=C/C=C/C=C(\C)[C@@H](CC(=O)NC[C@H](O[Si](C)(C)C(C)(C)C)[C@H](C)C(=O)NCC/C=C/B1OC(C)(C)C(C)(C)O1)OC(=O)C1C=CC1Cl) was 71%.

`CCCCCCC/C=C/C=C(\C)[C@H]1CC(=O)NC[C@H](O[Si](C)(C)C(C)(C)C)[C@H](C)C(=O)NCC/C=C/C=C/C=C/C(=O)O1` [cis-31a -> 32a (FR252921)]: for the setting “from CCCCCCC/C=C/C=C(\C)[C@@H](CC(=O)NC[C@H](O[Si](C)(C)C(C)(C)C)[C@H](C)C(=O)NCC/C=C/B1OC(C)(C)C(C)(C)O1)OC(=O)C1C=CC1Cl”, the ring closure, isolated yield was 74%.

With `C[C@@H]1C(=O)NCC/C=C/C=C/C=C/C(=O)O[C@@H](C)CC(=O)NC[C@@H]1O[Si](C)(C)C(C)(C)C`, the ring closure, isolated yield (from C[C@H](C(=O)NCC/C=C/B1OC(C)(C)C(C)(C)O1)[C@H](CNC(=O)C[C@H](C)OC(=O)C1C=CC1Cl)O[Si](C)(C)C(C)(C)C) was 84%.

For `C/C(=C\C=C\c1ccc(C)cc1)[C@H]1CC(=O)NC[C@H](O[Si](C)(C)C(C)(C)C)[C@H](C)C(=O)NCC/C=C/C=C/C=C/C(=O)O1` [cis-31j -> 32j (FR7, p-tolyl-dienyl)], where the note is “from C/C(=C\C=C\c1ccc(C)cc1)[C@@H](CC(=O)NC[C@H](O[Si](C)(C)C(C)(C)C)[C@H](C)C(=O)NCC/C=C/B1OC(C)(C)C(C)(C)O1)OC(=O)C1C=CC1Cl”, the ring closure, isolated yield worked out at 20%.

Consider `C/C(=C\C=C\c1ccccc1)[C@H]1CC(=O)NC[C@H](O[Si](C)(C)C(C)(C)C)[C@H](C)C(=O)NCC/C=C/C=C/C=C/C(=O)O1` [cis-31i -> 32i (FR6, Ph-dienyl)], for which the ring closure, isolated yield (from C/C(=C\C=C\c1ccccc1)[C@@H](CC(=O)NC[C@H](O[Si](C)(C)C(C)(C)C)[C@H](C)C(=O)NCC/C=C/B1OC(C)(C)C(C)(C)O1)OC(=O)C1C=CC1Cl) turned out to be 80%.

Take `C/C(=C\Br)[C@H]1CC(=O)NC[C@H](O[Si](C)(C)C(C)(C)C)[C@H](C)C(=O)NCC/C=C/C=C/C=C/C(=O)O1` [cis-31m -> 32m (FR10, bromovinyl)]: the ring closure, isolated yield (from C/C(=C\Br)[C@@H](CC(=O)NC[C@H](O[Si](C)(C)C(C)(C)C)[C@H](C)C(=O)NCC/C=C/B1OC(C)(C)C(C)(C)O1)OC(=O)C1C=CC1Cl) came out at 54%.

As for `C[C@@H]1C(=O)NCC/C=C/C=C/C=C/C(=O)O[C@@H](c2ccc(Br)cc2)CC(=O)NC[C@@H]1O[Si](C)(C)C(C)(C)C` [cis-31l -> 32l (FR9, 4-bromophenyl)], the ring closure, isolated yield (from C[C@H](C(=O)NCC/C=C/B1OC(C)(C)C(C)(C)O1)[C@H](CNC(=O)C[C@@H](OC(=O)C1C=CC1Cl)c1ccc(Br)cc1)O[Si](C)(C)C(C)(C)C) was 58%.

`C[C@@H]1C(=O)NCC/C=C/C=C/C=C/C(=O)O[C@@H](c2ccc3ccccc3c2)CC(=O)NC[C@@H]1O[Si](C)(C)C(C)(C)C` [cis-31n -> 32n (FR11, 2-naphthyl)]: for the setting “from C[C@H](C(=O)NCC/C=C/B1OC(C)(C)C(C)(C)O1)[C@H](CNC(=O)C[C@@H](OC(=O)C1C=CC1Cl)c1ccc2ccccc2c1)O[Si](C)(C)C(C)(C)C”, the ring closure, isolated yield turned out to be 51%.

As to `C/C(=C\C=C\C(F)(F)F)[C@H]1CC(=O)NC[C@H](O[Si](C)(C)C(C)(C)C)[C@H](C)C(=O)NCC/C=C/C=C/C=C/C(=O)O1`, under “from C/C(=C\C=C\C(F)(F)F)[C@@H](CC(=O)NC[C@H](O[Si](C)(C)C(C)(C)C)[C@H](C)C(=O)NCC/C=C/B1OC(C)(C)C(C)(C)O1)OC(=O)C1C=CC1Cl”, the ring closure, isolated yield came to 73%.

For `C/C(=C\C=C\c1ccc(C(F)(F)F)cc1)[C@H]1CC(=O)NC[C@H](O[Si](C)(C)C(C)(C)C)[C@H](C)C(=O)NCC/C=C/C=C/C=C/C(=O)O1` [cis-31k -> 32k (FR8, p-CF3-phenyl-dienyl)], for the setting “from C/C(=C\C=C\c1ccc(C(F)(F)F)cc1)[C@@H](CC(=O)NC[C@H](O[Si](C)(C)C(C)(C)C)[C@H](C)C(=O)NCC/C=C/B1OC(C)(C)C(C)(C)O1)OC(=O)C1C=CC1Cl”, the ring closure, isolated yield stood at 47%.

In the case of `CCCCCCCCCCC[C@H]1CC(=O)NC[C@H](O[Si](C)(C)C(C)(C)C)[C@H](C)C(=O)NCC/C=C/C=C/C=C/C(=O)O1` [cis-31d -> 32d (FR1, C11H23 side chain)], the ring closure, isolated yield (from CCCCCCCCCCC[C@@H](CC(=O)NC[C@H](O[Si](C)(C)C(C)(C)C)[C@H](C)C(=O)NCC/C=C/B1OC(C)(C)C(C)(C)O1)OC(=O)C1C=CC1Cl) was 56%.
